Several values for one entry are separate records, joined by “and”; a condition that tells them apart may be missing. Equal entries are not always repeated. Inconclusive results and toxic doses are left out.

For the test, the system named is BDF1 mice, P388 leukemia ip, median survival T/C. As to the kind of experiment: NCI In Vivo Anticancer Drug Screen. Data for tumor model P388 Leukemia (intraperitoneal) in B6D2F1 (BDF1) mice. Conditions: endpoint: median survival time, higher = longer survival. The method, boiled down: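 Survival ratio, drug arm over vehicle arm, in mice with a transplanted tumour.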

Where [1] appears, read: dose: 25.0 mg/kg/injection, schedule: Q01DX009 (ip), vehicle: Klucel (hydroxypropylcellulose) (HPC).
Setting [2] is: dose: 50.0 mg/kg/injection, schedule: Q01DX009 (ip), vehicle: Klucel (hydroxypropylcellulose) (HPC).
Where [3] appears, read: dose: 100.0 mg/kg/injection, schedule: Q04DX003 (ip), vehicle: Klucel (hydroxypropylcellulose) (HPC).
Setting [4] is: dose: 100.0 mg/kg/injection, schedule: Q04DX003 (ip), vehicle: saline.
The mark [5] stands for this setting: dose: 100.0 mg/kg/injection, schedule: Q01DX009 (ip), vehicle: Klucel (hydroxypropylcellulose) (HPC).
[6] abbreviates: dose: 200.0 mg/kg/injection, schedule: Q01DX009 (ip), vehicle: Klucel (hydroxypropylcellulose) (HPC).
The mark [7] stands for this setting: dose: 200.0 mg/kg/injection, schedule: Q04DX003 (ip), vehicle: Klucel (hydroxypropylcellulose) (HPC).
The mark [8] stands for this setting: dose: 400.0 mg/kg/injection, schedule: Q04DX003 (ip), vehicle: Klucel (hydroxypropylcellulose) (HPC).
[9] abbreviates: dose: 100.0 mg/kg/injection, schedule: Q01DX009 (ip), vehicle: saline with Tween-80.
Setting [10] is: dose: 200.0 mg/kg/injection, schedule: Q01DX009 (ip), vehicle: saline with Tween-80.
[11] abbreviates: dose: 100.0 mg/kg/injection, schedule: Q01DX001 (ip), vehicle: saline with Tween-80.

With `CC(=O)OC/C(=N\Nc1ccc([N+](=O)[O-])cc1[N+](=O)[O-])c1ccccc1`, the T/C was 104 % of control (dose: 3.13 mg/kg/injection, schedule: Q01DX001 (ip), vehicle: saline with Tween-80); 100 % of control (dose: 6.25 mg/kg/injection, schedule: Q01DX001 (ip), vehicle: saline with Tween-80); 95 % of control (dose: 12.5 mg/kg/injection, schedule: Q01DX001 (ip), vehicle: saline with Tween-80).
Consider `NC(CSC(c1ccccc1)(c1ccccc1)c1ccccc1)C(=O)O` (centres undefined), for which the T/C reads like this: (dose: 3.0 mg/kg/injection, schedule: Q01DX009 (ip), vehicle: Klucel (hydroxypropylcellulose) (HPC)) 122 % of control; (dose: 4.8 mg/kg/injection, schedule: Q04DX003 (ip), vehicle: Klucel (hydroxypropylcellulose) (HPC)) 108 % of control; (dose: 7.2 mg/kg/injection, schedule: Q04DX003 (ip), vehicle: Klucel (hydroxypropylcellulose) (HPC)) 100 % of control; (dose: 10.0 mg/kg/injection, schedule: Q01DX009 (ip), vehicle: Klucel (hydroxypropylcellulose) (HPC)) 175 % of control; (dose: 14.4 mg/kg/injection, schedule: Q01DX009 (ip), vehicle: other) 150 % of control; (dose: 16.0 mg/kg/injection, schedule: Q01DX009 (ip), vehicle: Klucel (hydroxypropylcellulose) (HPC)) 177 % of control. For the same compound, the T/C reads like this: (dose: 24.0 mg/kg/injection, schedule: Q01DX009 (ip), vehicle: other) 115 % of control; under setting [1], 200 % of control and 204 % of control; (dose: 25.0 mg/kg/injection, schedule: Q04DX003 (ip), vehicle: Klucel (hydroxypropylcellulose) (HPC)) 231 % of control; (dose: 35.0 mg/kg/injection, schedule: Q01DX009 (ip), vehicle: Klucel (hydroxypropylcellulose) (HPC)) 227 % of control; (dose: 40.0 mg/kg/injection, schedule: Q01DX009 (ip), vehicle: other) 123 % of control; under setting [2], 86 % of control. The T/C was 186 % of control (dose: 50.0 mg/kg/injection, schedule: Q04DX003 (ip), vehicle: Klucel (hydroxypropylcellulose) (HPC)); 272 % of control (dose: 66.0 mg/kg/injection, schedule: Q04DX003 (ip), vehicle: saline); 240 % of control under setting [3]; 90 % of control under setting [4].
Regarding `Clc1ccc(N=Cc2ccccc2)cc1`, the T/C was 90 % of control under setting [5]; 108 % of control under setting [3]; 90 % of control under setting [6]; 95 % of control under setting [7]; 100 % of control under setting [8].
Take `CC[CH2][Pb]([CH2]CC)([CH2]CC)[O]C(=O)C(F)(F)F`: the T/C is, setting by setting: (dose: 4.0 mg/kg/injection, schedule: Q01DX009 (ip), vehicle: Klucel (hydroxypropylcellulose) (HPC)) 113 % of control; (dose: 4.0 mg/kg/injection, schedule: Q01DX009 (ip), vehicle: saline with Tween-80) 122 % of control; (dose: 6.0 mg/kg/injection, schedule: Q01DX009 (ip), vehicle: Klucel (hydroxypropylcellulose) (HPC)) 111 % of control; (dose: 6.0 mg/kg/injection, schedule: Q01DX009 (ip), vehicle: saline with Tween-80) 150 % of control.
For the compound `C/C(=N/N(C)C)c1ccccn1`, the T/C reads like this: under setting [9], 103 % of control; (dose: 100.0 mg/kg/injection, schedule: Q04DX003 (ip), vehicle: saline with Tween-80) 104 % of control; under setting [10], 100 % of control; (dose: 200.0 mg/kg/injection, schedule: Q04DX003 (ip), vehicle: saline with Tween-80) 100 % of control; (dose: 400.0 mg/kg/injection, schedule: Q04DX003 (ip), vehicle: saline with Tween-80) 100 % of control.
Regarding `CCSC1(SCC)C(=O)OC2=C(CCCC2)C1N(C)c1ccccc1` (centres undefined), the T/C is, setting by setting: (dose: 50.0 mg/kg/injection, schedule: Q01DX009 (ip), vehicle: saline with Tween-80) 96 % of control; under setting [9], 94 % of control; under setting [10], 91 % of control.
As to `C(#CSCc1ccccc1)SCc1ccccc1`, the T/C by setting is: under setting [5], 105 % of control; under setting [3], 87 % of control; under setting [6], 100 % of control; under setting [7], 100 % of control; (dose: 400.0 mg/kg/injection, schedule: Q01DX009 (ip), vehicle: Klucel (hydroxypropylcellulose) (HPC)) 100 % of control; under setting [8], 91 % of control.
As for `CC(=O)Oc1ccc(OC(C)=O)c2c1CC(C)=C(C)C2`, the T/C was 107 % of control (dose: 50.0 mg/kg/injection, schedule: Q01DX009 (ip), vehicle: saline); 113 % of control (dose: 100.0 mg/kg/injection, schedule: Q01DX009 (ip), vehicle: saline); 109 % of control under setting [4]; 109 % of control (dose: 200.0 mg/kg/injection, schedule: Q01DX009 (ip), vehicle: saline); 116 % of control (dose: 200.0 mg/kg/injection, schedule: Q04DX003 (ip), vehicle: saline); 118 % of control (dose: 400.0 mg/kg/injection, schedule: Q01DX009 (ip), vehicle: saline).
In the case of `CN1C(=O)N(C)C(=O)C(C)(C2(C)C(=O)N(C)C(=O)N(C)C2=O)C1=O`, the T/C runs as follows: under setting [11], 100 % of control; (dose: 200.0 mg/kg/injection, schedule: Q01DX001 (ip), vehicle: saline with Tween-80) 99 % of control; (dose: 400.0 mg/kg/injection, schedule: Q01DX001 (ip), vehicle: saline with Tween-80) 90 % of control.
For the compound `CC(C)(C)[Si](OC(=O)N(CCCl)CCCl)(c1ccccc1)c1ccccc1`, the T/C (dose: 50.0 mg/kg/injection, schedule: Q01DX001 (ip), vehicle: saline with Tween-80) was 100 % of control; the T/C under setting [11] is 118 % of control and 124 % of control.
In the case of `NC(=O)/C=C/c1c[nH]c2nccnc12`, the T/C is, setting by setting: (dose: 3.12 mg/kg/injection, schedule: Q01DX009 (ip), vehicle: water) 113 % of control; (dose: 3.12 mg/kg/injection, schedule: Q04DX003 (ip), vehicle: water) 106 % of control; (dose: 6.25 mg/kg/injection, schedule: Q01DX009 (ip), vehicle: water) 108 % of control; (dose: 6.25 mg/kg/injection, schedule: Q04DX003 (ip), vehicle: water) 105 % of control and 112 % of control; (dose: 12.5 mg/kg/injection, schedule: Q01DX009 (ip), vehicle: water) 121 % of control; (dose: 12.5 mg/kg/injection, schedule: Q04DX003 (ip), vehicle: water) 104 % of control and 106 % of control. Besides, the T/C (dose: 25.0 mg/kg/injection, schedule: Q04DX003 (ip), vehicle: water) was 114 % of control.
On to `CN(Cc1ccccc1)/N=N/c1nc[nH]c1C(N)=O`, for which the T/C by setting is: under setting [1], 95 % of control; under setting [2], 110 % of control; under setting [5], 110 % of control; under setting [6], 100 % of control.

Source of the values: PubChem BioAssay AID328 (DTP/NCI, 2004).
